{"source": "patent US12077503B2", "about": "“Substituted cyclic amides and their use as herbicides” (FMC CORPORATION, priority 2015, dated 2024)", "assay_type_in_all_cases": "in vivo", "key": {"[1]": {"tested_on": "giant foxtail (Setaria faberii)", "assay": "Test A preemergence", "conditions": "Setaria faberi, pre-emergence, 240 h, Preemergence", "method_in_brief": "(§1)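 Visual injury scores from 0, no effect, to 100, complete control, were assigned versus untreated controls roughly 10 d after treatment in the greenhouse. Test chemicals, formulated with surfactant in a non-phytotoxic solvent, were applied to planted seeds as a preemergence soil spray or postemergence to one- to two-leaf plants 2 to 10 cm tall, in loam–sand soil.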"}, "[2]": {"tested_on": "ragweed (common ragweed, Ambrosia elatior)", "assay": "Test A preemergence", "conditions": "Ambrosia artemisiifolia, pre-emergence, 240 h, Preemergence", "method_in_brief": "as §1"}, "Kochia (Kochia scoparia) [3]": {"tested_on": "Kochia (Kochia scoparia)", "assay": "Test A preemergence", "conditions": "Bassia scoparia, pre-emergence, 240 h, Preemergence", "method_in_brief": "as §1"}, "[4]": {"tested_on": "barnyardgrass (Echinochloa crus-galli)", "assay": "Test A preemergence", "conditions": "Echinochloa crus-galli, pre-emergence, 240 h, Preemergence", "method_in_brief": "as §1"}, "[5]": {"tested_on": "pigweed (Amaranthus retroflexus)", "assay": "Test A preemergence", "conditions": "Amaranthus retroflexus, pre-emergence, 240 h, Preemergence"}, "[6]": {"tested_on": "ryegrass, Italian (Italian ryegrass, Lolium multiflorum)", "assay": "Test A preemergence", "conditions": "Lolium multiflorum, pre-emergence, 240 h, Preemergence", "method_in_brief": "as §1"}, "[7]": {"tested_on": "sedge, umbrella (small-flower umbrella sedge, Cyperus difformis)", "assay": "Test B flooded paddy test", "conditions": "Cyperus difformis, 360 h, Flood, 250 g ai/ha; visually evaluated after 13 to 15 d; read-out: Plant response rating, Sedge, Umbrella (0 to 100 scale where 0 is no effect and 100 is complete control)", "method_in_brief": "(§2)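 Rating scale 0–100 (visual, vs untreated controls) after a 13–15 d greenhouse period; application to the flood layer, 3 cm above soil and maintained; plants at 2-leaf stage when treated.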"}, "rice (Oryra sativa)": {"tested_on": "rice (Oryra sativa)", "assay": "Test B flooded paddy test", "conditions": "Oryza sativa, 360 h, Flood, 250 g ai/ha; visually evaluated after 13 to 15 d; read-out: Plant response rating, Rice (0 to 100 scale where 0 is no effect and 100 is complete control)", "method_in_brief": "as §2"}, "[8]": {"tested_on": "barnyardgrass (Echinochloa crus-galli)", "assay": "Test B flooded paddy test", "conditions": "Echinochloa crus-galli, 360 h, Flood, 250 g ai/ha; visually evaluated after 13 to 15 d; read-out: Plant response rating, Barnyardgrass (0 to 100 scale where 0 is no effect and 100 is complete control)", "method_in_brief": "as §2"}, "[9]": {"tested_on": "ducksalad (Heteranthera limosa)", "assay": "Test B flooded paddy test", "conditions": "Heteranthera limosa, 360 h, Flood, 250 g ai/ha; visually evaluated after 13 to 15 d; read-out: Plant response rating, Ducksalad (0 to 100 scale where 0 is no effect and 100 is complete control)", "method_in_brief": "as §2"}, "[10]": {"tested_on": "giant foxtail (Setaria faberii)", "assay": "Test A postemergence", "conditions": "Setaria faberi, post-emergence, 240 h, Postemergence, read-out: Foxtail, Giant plant response rating (0 to 100 scale)", "method_in_brief": "as §1"}, "[11]": {"tested_on": "ragweed (common ragweed, Ambrosia elatior)", "assay": "Test A postemergence", "conditions": "Ambrosia artemisiifolia, post-emergence, 240 h, Postemergence, read-out: Ragweed plant response rating (0 to 100 scale)", "method_in_brief": "as §1"}, "corn (Zea mays)": {"tested_on": "corn (Zea mays)", "assay": "Test A postemergence", "conditions": "Zea mays, post-emergence, 240 h, Postemergence, read-out: Corn plant response rating (0 to 100 scale)", "method_in_brief": "as §1"}, "Kochia (Kochia scoparia) [12]": {"tested_on": "Kochia (Kochia scoparia)", "assay": "Test A postemergence", "conditions": "Bassia scoparia, post-emergence, 240 h, Postemergence, read-out: Kochia plant response rating (0 to 100 scale)", "method_in_brief": "as §1"}, "[13]": {"tested_on": "Galium (catchweed bedstraw, Galium aparine)", "assay": "Test A postemergence", "conditions": "Galium, post-emergence, 240 h, Postemergence, read-out: Galium plant response rating (0 to 100 scale)", "method_in_brief": "as §1"}, "[14]": {"tested_on": "barnyardgrass (Echinochloa crus-galli)", "assay": "Test A postemergence", "conditions": "Echinochloa crus-galli, post-emergence, 240 h, Postemergence", "method_in_brief": "as §1"}, "[15]": {"tested_on": "wheat (Triticum aestivum)", "assay": "Test A postemergence", "conditions": "Triticum aestivum, post-emergence, 240 h, Postemergence, read-out: Wheat plant response rating (0 to 100 scale)", "method_in_brief": "as §1"}, "[16]": {"tested_on": "pigweed (Amaranthus retroflexus)", "assay": "Test A postemergence", "conditions": "Amaranthus retroflexus, post-emergence, 240 h, Postemergence, read-out: Pigweed plant response rating (0 to 100 scale)", "method_in_brief": "as §1"}, "[17]": {"tested_on": "ryegrass, Italian (Italian ryegrass, Lolium multiflorum)", "assay": "Test A postemergence", "conditions": "Lolium multiflorum, post-emergence, 240 h, Postemergence, read-out: Ryegrass, Italian plant response rating (0 to 100 scale)", "method_in_brief": "as §1"}, "[18]": {"tested_on": "blackgrass (Alopecurus myosuroides)", "assay": "Test A postemergence", "conditions": "Alopecurus myosuroides, post-emergence, 240 h, Postemergence, read-out: Blackgrass plant response rating (0 to 100 scale)", "method_in_brief": "as §1"}, "[19]": {"conditions": "125 g ai/ha, visual rating about 10 d after treatment"}, "[20]": {"conditions": "31 g ai/ha, 0 is no effect, 100 is complete control"}}, "data": [{"smiles": "Cc1cccc([C@H]2CN(C)C(=O)[C@@H]2C(=O)Nc2ccc(F)nc2F)c1", "note": "[Compound 1349]", "values": [{"measurement": "pest or weed control at 31 g/ha", "setting": "[1]; 31 g ai/ha, 0 to 100 scale where 0 is no effect and 100 is complete control, read-out: Foxtail, Giant plant response rating", "value": 100, "unit": "%"}, {"measurement": "pest or weed control at 125 g/ha", "setting": "[1]; 125 g ai/ha, 0 to 100 scale (0 no effect, 100 complete control), read-out: Plant response rating, Foxtail, Giant", "value": 100, "unit": "%"}, {"measurement": "pest or weed control at 31 g/ha", "setting": "[2]; 31 g ai/ha, 0 to 100 scale where 0 is no effect and 100 is complete control, read-out: Ragweed plant response rating", "value": 0, "unit": "%"}, {"measurement": "pest or weed control at 125 g/ha", "setting": "[2]; 125 g ai/ha, 0 to 100 scale (0 no effect, 100 complete control), read-out: Plant response rating, Ragweed", "value": 0, "unit": "%"}, {"measurement": "pest or weed control at 31 g/ha", "setting": "Kochia (Kochia scoparia) [3]; 31 g ai/ha, 0 to 100 scale where 0 is no effect and 100 is complete control, read-out: Kochia plant response rating", "value": 0, "unit": "%"}, {"measurement": "pest or weed control at 125 g/ha", "setting": "Kochia (Kochia scoparia) [3]; 125 g ai/ha, 0 to 100 scale (0 no effect, 100 complete control), read-out: Plant response rating, Kochia", "value": 20, "unit": "%"}, {"measurement": "pest or weed control at 31 g/ha", "setting": "[4]; 31 g ai/ha, 0 to 100 scale where 0 is no effect and 100 is complete control, read-out: Barnyardgrass plant response rating", "value": 20, "unit": "%"}, {"measurement": "pest or weed control at 125 g/ha", "setting": "[4]; 125 g ai/ha, 0 to 100 scale (0 no effect, 100 complete control), read-out: Plant response rating, Barnyardgrass", "value": 100, "unit": "%"}, {"measurement": "pest or weed control at 31 g/ha", "setting": "[5]; 31 g ai/ha, 0 to 100 scale where 0 is no effect and 100 is complete control, read-out: Pigweed plant response rating", "value": 0, "unit": "%"}, {"measurement": "pest or weed control at 125 g/ha", "setting": "[5]; 125 g ai/ha, 0 to 100 scale (0 no effect, 100 complete control), read-out: Plant response rating, Pigweed", "value": 0, "unit": "%"}, {"measurement": "pest or weed control at 31 g/ha", "setting": "[6]; 31 g ai/ha, 0 to 100 scale where 0 is no effect and 100 is complete control, read-out: Ryegrass, Italian plant response rating", "value": 0, "unit": "%"}, {"measurement": "pest or weed control at 125 g/ha", "setting": "[6]; 125 g ai/ha, 0 to 100 scale (0 no effect, 100 complete control), read-out: Plant response rating, Ryegrass, Italian", "value": 0, "unit": "%"}, {"measurement": "pest or weed control at 250 g/ha", "setting": "[7]", "value": 0, "unit": "%"}, {"measurement": "pest or weed control at 250 g/ha", "setting": "rice (Oryra sativa)", "value": 0, "unit": "%"}, {"measurement": "pest or weed control at 250 g/ha", "setting": "[8]", "value": 90, "unit": "%"}, {"measurement": "pest or weed control at 250 g/ha", "setting": "[9]", "value": 95, "unit": "%"}, {"measurement": "pest or weed control at 125 g/ha", "setting": "[10]; [19]", "value": 80, "unit": "%"}, {"measurement": "pest or weed control at 31 g/ha", "setting": "[10]; [20]", "value": 60, "unit": "%"}, {"measurement": "pest or weed control at 125 g/ha", "setting": "[11]; [19]", "value": 0, "unit": "%"}, {"measurement": "pest or weed control at 31 g/ha", "setting": "[11]; [20]", "value": 0, "unit": "%"}, {"measurement": "plant injury at 125 g/ha", "setting": "corn (Zea mays); [19]", "value": 0, "unit": "%"}, {"measurement": "plant injury at 31 g/ha", "setting": "corn (Zea mays); [20]", "value": 0, "unit": "%"}, {"measurement": "pest or weed control at 125 g/ha", "setting": "Kochia (Kochia scoparia) [12]; [19]", "value": 30, "unit": "%"}, {"measurement": "pest or weed control at 31 g/ha", "setting": "Kochia (Kochia scoparia) [12]; [20]", "value": 0, "unit": "%"}, {"measurement": "pest or weed control at 125 g/ha", "setting": "[13]; [19]", "value": 60, "unit": "%"}, {"measurement": "pest or weed control at 31 g/ha", "setting": "[13]; [20]", "value": 30, "unit": "%"}, {"measurement": "pest or weed control at 125 g/ha", "setting": "[14]; 125 g ai/ha, visual rating about 10 d after treatment, read-out: Barnyardgrass plant response rating (0 to 100 scale, 0 no effect, 100 complete control)", "value": 90, "unit": "%"}, {"measurement": "pest or weed control at 31 g/ha", "setting": "[14]; 31 g ai/ha, 0 is no effect, 100 is complete control, read-out: Barnyardgrass plant response rating (0 to 100 scale)", "value": 70, "unit": "%"}, {"measurement": "plant injury at 125 g/ha", "setting": "[15]; [19]", "value": 0, "unit": "%"}, {"measurement": "plant injury at 31 g/ha", "setting": "[15]; [20]", "value": 0, "unit": "%"}, {"measurement": "pest or weed control at 125 g/ha", "setting": "[16]; [19]", "value": 0, "unit": "%"}, {"measurement": "pest or weed control at 31 g/ha", "setting": "[16]; [20]", "value": 0, "unit": "%"}, {"measurement": "pest or weed control at 125 g/ha", "setting": "[17]; [19]", "value": 20, "unit": "%"}, {"measurement": "pest or weed control at 31 g/ha", "setting": "[17]; [20]", "value": 0, "unit": "%"}, {"measurement": "pest or weed control at 125 g/ha", "setting": "[18]; [19]", "value": 20, "unit": "%"}, {"measurement": "pest or weed control at 31 g/ha", "setting": "[18]; [20]", "value": 0, "unit": "%"}]}]}
